Values of other authors, collected in patent US20080227813A1, “Pharmaceutical compositions and methods for treating diseases associated with neurodegeneration” (priority 2006, published 2008).

Test system: patients suffering from ALS
Settings: riluzole alone, previous studies; cited from earlier work

## Nc1nc2ccc(OC(F)(F)F)cc2s1 [riluzole, Riluzole]
  effect on VC: failed to demonstrate any effect
